# Experimental data taken from ChEMBL document CHEMBL1129875, “SYNTHESIS AND ANTISTAPHYLOCOCCAL ACTIVITY OF NEMATOPHIN AND ITS ANALOGS” (1997).
# System: Staphylococcus aureus
# Test: Minimum inhibitory concentration required to inhibit Staphylococcus aureus ATCC 29213 cell growth
# Format: functional
row,SMILES,MIC [µg/mL]
1,CC(C)C(=O)C(=O)NCCc1c[nH]c2ccccc12,3
2,CC(C)CC(=O)C(=O)NCCc1c[nH]c2ccccc12,0.7
3,CCC(=O)C(=O)NCCc1c[nH]c2ccccc12,100
4,CCC(C)C(=O)C(=O)NCCc1c[nH]c2ccccc12 (stereo unspecified),0.7
5,CCC(C)C(=O)C(=O)OCCc1c[nH]c2ccccc12 (stereo unspecified),25
6,CC(=O)C(=O)NCCc1c[nH]c2ccccc12,100
7,CCC(C)C(=O)C(=O)NCCc1c[nH]c2ccc(C)cc12 (stereo unspecified),3
8,CCC(C)C(O)C(=O)NCCc1c[nH]c2ccccc12 (stereo unspecified),> 100
9,CCC(C)/C(=N\OC)C(=O)NCCc1c[nH]c2ccccc12 (stereo unspecified),> 100
10,CCC(C)C(=O)C(=O)NCCc1c[nH]c2cc(F)ccc12 (stereo unspecified),0.7
11,CCC(C)C(=O)C(=O)NCCc1c[nH]c2ccc(OC)cc12 (stereo unspecified),3
